The record followed here is patent publication US20060069132A1, “Azolecarboxamide herbicides” (priority 2004, published 2006).

Assay [1] deals with rice. In words: Test B pre-/postemergence herbicide test. The assay is classed as in vivo, Oryza sativa. The conditions noted are these: for plant injury at 125 g/ha / plant injury at 500 g/ha: Oryza sativa, pre-emergence, 336 h; for plant injury at 125 g/ha / Rice plant response rating (0 to 100 scale): 125 g ai/ha; for plant injury at 125 g/ha: read-out: Rice plant response rating (0 to 100 scale); for plant injury at 500 g/ha / Plant response rating, Rice: 500 g ai/ha; for plant injury at 500 g/ha: read-out: Plant response rating, Rice; for Rice plant response rating (0 to 100 scale) / Plant response rating, Rice: preemergence. Summed up: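 Test chemicals in a non-phytotoxic solvent mixture with surfactant were applied preemergence to seeded species and postemergence to plants 2-18 cm tall (1- to 4-leaf stage); rice and barnyardgrass were also tested in a flooded paddy at the 2-leaf stage. Visual rating versus controls after 13-15 days in greenhouse, scale 0 (no effect) to 100 (complete control).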

In a further assay the test system is large crabgrass. Kind of assay: Test C pre-/postemergence herbicide test. It is filed as in vivo, Digitaria sanguinalis. A digest of the protocol:
(§1)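 Greenhouse-grown plants were evaluated visually 12 to 14 days after treatment, with 100 meaning complete control and 0 no effect. Application was preemergence, or postemergence at 2 to 18 cm.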

A further assay concerns common ragweed. In words: Test C pre-/postemergence herbicide test. It is filed as in vivo, Ambrosia elatior. Set-up: key to Plant response rating, Ragweed: 0 = no effect, 100 = complete control. A digest of the protocol: as §1
For the next assay, the system named is pigweed. In words: Test C pre-/postemergence herbicide test. It is filed as in vivo, Amaranthus retroflexus. Summed up:
as §1

The subject of another assay is eastern black nightshade. Kind of assay: Test C pre-/postemergence herbicide test. The assay is classed as in vivo, Solanum ptycanthum. A digest of the protocol: as §1
A further assay concerns Surinam grass. In words: Test C pre-/postemergence herbicide test. The assay is classed as in vivo, Urochloa decumbens. A digest of the protocol:
as §1

Another assay has as its system ducksalad. Kind of assay: Test C flooded paddy test. The assay is classed as in vivo, Heteranthera limosa.
Assay [2] relates to rice. Kind of assay: Test C flooded paddy test. The assay is classed as in vivo, Oryza sativa. A digest of the protocol: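 Injury scored visually against controls on a 0 (no effect) to 100 (complete control) scale, 12 to 14 days after treatment in greenhouse. Flooded paddy plants treated at 2-leaf stage; postemergence plants at 1- to 4-leaf stage, 2 to 18 cm tall.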
For a further assay, the system named is barnyardgrass. Kind of assay: Test A pre-/postemergence herbicide test. It is filed as in vivo, Echinochloa crus-galli. Summed up:
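Plants are held in greenhouse about ten days after treatment, then compared with untreated controls and scored 0 (no effect) to 100 (complete control). Preemergence dosing is a directed soil spray on sown sandy loam; postemergence dosing is spray to runoff at 2–10 cm height.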

Setting [3] is: 0 = no effect, 100 = complete control.
[4] abbreviates: Preemergence, 500 g ai/ha, scale 0 to 100, 0 no effect, 100 complete control.
Setting [5] is: visual rating, 0 = no effect, 100 = complete control.
Setting [6] is: 125 g ai/ha, scale 0 to 100 (0 no effect, 100 complete control).
Where [7] appears, read: 250 g ai/ha, scale of 0 to 100, 0 is no effect, 100 is complete control.
Where [8] appears, read: 500 g ai/ha, visual rating after 12 to 14 days, scale 0 to 100 (0 no effect, 100 complete control).
Where [9] appears, read: Postemergence, 500 g ai/ha, 0 to 100 scale, 0 no effect, 100 complete control.
Where [10] appears, read: Postemergence, 2000 g ai/ha, 0 to 100 scale, 0 no effect, 100 complete control.
The mark [11] stands for this setting: Preemergence, 2000 g ai/ha, visual rating, 0 to 100 scale (0 no effect, 100 complete control).
Where [12] appears, read: preemergence, 500 g ai/ha, visual injury, 0 to 100 scale (0 no effect, 100 complete control).
Where [13] appears, read: 62 g ai/ha, preemergence, scale 0 to 100.
[14] abbreviates: 250 g ai/ha, scale 0-100, preemergence.
Setting [15] is: 500 g ai/ha, scale 0 to 100 (0 no effect, 100 complete control), visual, 12 to 14 days, preemergence.

For the molecule `CCc1cn(C(C)(C)C)nc1C(=O)Nc1cccc(C(=O)N(CC)CC)c1` [Compound 168, N-[3-[(diethylamino)carbonyl]phenyl]-1-(1,1-dimethylethyl)-4-ethyl-1H-pyrazole-3-carboxamide], in the assay on rice [1] (setting [3]), the plant injury at 125 g/ha was 0%.

Take `CCc1nn(C(C)(C)C)cc1C(=O)Nc1cccc(C(=O)N(CC)CC)c1` [Compound 182, N-[3-[(diethylamino)carbonyl]phenyl]-1-(1,1-dimethylethyl)-3-ethyl-1H-pyrazole-4-carboxamide]: the pest or weed control at 62 g/ha was 0% in the assay with large crabgrass (Digitaria sanguinalis, pre-emergence, 312 h, 62 g ai/ha, preemergence, scale 0 to 100, read-out: Plant response rating, Crabgrass, Large); 20% in the assay on common ragweed (Ambrosia artemisiifolia, pre-emergence, 62 g ai/ha, preemergence, scale 0 to 100, read-out: Plant response rating, Ragweed); 95% with pigweed (Amaranthus retroflexus, pre-emergence, 62 g ai/ha, preemergence, scale 0 to 100, read-out: Plant response rating, Pigweed); 70% with eastern black nightshade (pre-emergence, 62 g ai/ha, preemergence, scale 0 to 100, read-out: Plant response rating, Nightshade); 0% in the assay with Surinam grass (Urochloa decumbens, pre-emergence, 312 h, 62 g ai/ha, preemergence, scale 0 to 100, read-out: Plant response rating, Surinam Grass). In addition, the pest or weed control at 125 g/ha with large crabgrass (Digitaria sanguinalis, pre-emergence, 312 h, 125 g ai/ha, scale 0 (no effect) to 100 (complete control), visual, 12 to 14 days, read-out: Plant response rating, Crabgrass, Large) amounted to 25%; in the assay on common ragweed (Ambrosia artemisiifolia, pre-emergence, 125 g ai/ha, scale 0 (no effect) to 100 (complete control), visual, 12 to 14 days, read-out: Plant response rating, Ragweed) it was 20%; with pigweed (Amaranthus retroflexus, pre-emergence, 125 g ai/ha, scale 0 (no effect) to 100 (complete control), visual, 12 to 14 days, read-out: Plant response rating, Pigweed), 95%; in the assay with eastern black nightshade (pre-emergence, 125 g ai/ha, scale 0 (no effect) to 100 (complete control), visual, 12 to 14 days, read-out: Plant response rating, Nightshade), 80%; in the assay with Surinam grass (Urochloa decumbens, pre-emergence, 312 h, 125 g ai/ha, scale 0 (no effect) to 100 (complete control), visual, 12 to 14 days, read-out: Plant response rating, Surinam Grass) it was 20%. For the same molecule, the pest or weed control at 250 g/ha with large crabgrass (Digitaria sanguinalis, pre-emergence, 312 h, 250 g ai/ha, scale 0 to 100 (0 no effect, 100 complete control), visual, 12 to 14 days, read-out: Plant response rating, Crabgrass, Large) amounted to 75%. For the same molecule, in the assay with large crabgrass (setting [4]), the “Crabgrass, Large plant response rating” value was determined as 100. Besides, the “Ragweed plant response rating” value with common ragweed (setting [4]) is 65. In addition, the plant injury at 125 g/ha in the assay on rice [1] (setting [3]) worked out at 0%. Also, the plant injury at 500 g/ha in the assay with rice [1] (visual rating 0-100, 0 no effect, 100 complete control) amounted to 50%. The “Pigweed plant response rating” value in the assay on pigweed (setting [4]) was 95. Moreover, the “Nightshade plant response rating” value in the assay on eastern black nightshade (setting [4]) stood at 95. In the assay with Surinam grass (setting [4]), the “Surinam Grass plant response rating” value worked out at 85.

On to `CCn1nc(C(C)(C)C)c(F)c1C(=O)Nc1cc(C(=O)N(C)C)ccc1F` [Compound 276, N-[5-[(dimethylamino)carbonyl]-2-fluorophenyl]-3-(1,1-dimethylethyl)-1-ethyl-4-fluoro-1H-pyrazole-5-carboxamide], for which the plant injury at 125 g/ha in the assay with rice [1] (setting [3]) is 50%; in the assay with rice [2] (Oryza sativa, 125 g ai/ha, scale 0 to 100 (0 no effect, 100 complete control), read-out: Rice plant response rating) it was 15%. The plant injury at 500 g/ha was determined as 80% with rice [1] (setting [5]) and 70% with rice [2] (Oryza sativa, 500 g ai/ha, visual rating after 12 to 14 days, scale 0 to 100 (0 no effect, 100 complete control), read-out: Plant response rating, Rice). For the same molecule, the pest or weed control at 62 g/ha with ducksalad (Heteranthera limosa, 62 g ai/ha, scale 0 to 100, read-out: Ducksalad plant response rating) was found to be 0%. Besides, the pest or weed control at 125 g/ha in the assay with ducksalad (Heteranthera limosa, 125 g ai/ha, scale 0 to 100 (0 no effect, 100 complete control), read-out: Ducksalad plant response rating) worked out at 20%. Moreover, in the assay with ducksalad (Heteranthera limosa, 250 g ai/ha, scale of 0 to 100, 0 is no effect, 100 is complete control, read-out: Ducksalad plant response rating), the pest or weed control at 250 g/ha was 70%. Besides, in the assay on ducksalad (Heteranthera limosa, 500 g ai/ha, visual rating after 12 to 14 days, scale 0 to 100 (0 no effect, 100 complete control), read-out: Plant response rating, Ducksalad), the pest or weed control at 500 g/ha came out at 85%. Further, in the assay on rice [2] (Oryza sativa, 62 g ai/ha, scale 0 to 100, read-out: Rice plant response rating), the plant injury at 62 g/ha came to 0%. In the assay with rice [2] (Oryza sativa, 250 g ai/ha, scale of 0 to 100, 0 is no effect, 100 is complete control, read-out: Rice plant response rating), the plant injury at 250 g/ha worked out at 50%.

As to `C=CCN(C)C(=O)c1cccc(NC(=O)c2cc(C(C)(C)C)nn2CC)c1` [Compound 285], the “Rice plant response rating (0 to 100 scale)” value with rice [1] (setting [3]) stood at 40. Moreover, the “Plant response rating, Rice” value with rice [1] (setting [5]) is 80; in the assay with rice [2] (setting [8]), 65. Also, the “Ducksalad plant response rating” value is 45 in the assay on ducksalad (62 g ai/ha, scale 0 to 100); 80 with ducksalad (setting [6]); 90 in the assay with ducksalad (setting [7]). Further, the “Plant response rating, Ducksalad” value in the assay on ducksalad (setting [8]) is given as 90. Also, the figures for the “Barnyardgrass plant response rating” value in the assay on barnyardgrass (setting [9]), with barnyardgrass (setting [11]) and with barnyardgrass (setting [12]) were 55, 90 and 70, respectively. Further, the “Plant response rating, Barnyardgrass” value with barnyardgrass (setting [10]) amounted to 80. The “Rice plant response rating” value was 25 in the assay with rice [2] (62 g ai/ha, scale 0 to 100); 40 in the assay on rice [2] (setting [6]); 45 with rice [2] (setting [7]).

Consider `CCOC(=O)c1cccc(NC(=O)c2cc(C(C)(C)C)nn2C)n1` [Compound 313], for which the “Rice plant response rating (0 to 100 scale)” value in the assay with rice [1] (setting [3]) came out at 20. In addition, the “Plant response rating, Rice” value in the assay with rice [1] (setting [5]) is reported as 40. Moreover, the “Ducksalad plant response rating” value in the assay on ducksalad (16 g ai/ha, scale 0 to 100) is on record as 0; with ducksalad (31 g ai/ha, scale 0 to 100), 0; with ducksalad (62 g ai/ha, scale 0 to 100), 0; in the assay on ducksalad (setting [6]), 30. For the same molecule, the “Barnyardgrass plant response rating” value stood at 80 with barnyardgrass (setting [9]), 90 in the assay with barnyardgrass (setting [11]) and 80 in the assay with barnyardgrass (setting [12]). Moreover, the “Plant response rating, Barnyardgrass” value in the assay with barnyardgrass (setting [10]) came to 95. Further, the “Rice plant response rating” value is listed as 0 in the assay on rice [2] (16 g ai/ha, scale 0 to 100); 0 in the assay on rice [2] (31 g ai/ha, scale 0 to 100); 0 in the assay with rice [2] (62 g ai/ha, scale 0 to 100); 20 in the assay on rice [2] (setting [6]).

With `CCc1nn(C(C)(C)C)nc1C(=S)Nc1cccc(C(=S)N(C)C)c1` [Compound 396], the “Plant response rating, Crabgrass, Large” value in the assay with large crabgrass (setting [13]), in the assay with large crabgrass (setting [14]) and in the assay with large crabgrass (setting [15]) was 100 throughout. For the same molecule, in the assay on large crabgrass (125 g ai/ha, preemergence), the “Plant response rating (0 = no effect, 100 = complete control), Crabgrass, Large” value is 100. Also, the results for the “Plant response rating, Ragweed” value in the assay on common ragweed (setting [13]), in the assay with common ragweed (setting [14]) and in the assay on common ragweed (setting [15]) were 0, 80 and 95, respectively. Besides, the “Plant response rating (0 = no effect, 100 = complete control), Ragweed” value in the assay on common ragweed (125 g ai/ha, preemergence) amounted to 0. Besides, the “Ducksalad plant response rating” value is on record as 0 in the assay on ducksalad (62 g ai/ha, scale 0 to 100); 0 in the assay with ducksalad (setting [6]); 65 in the assay on ducksalad (setting [7]). For the same molecule, in the assay on ducksalad (setting [8]), the “Plant response rating, Ducksalad” value came out at 75. For the same molecule, the “Plant response rating, Pigweed” value with pigweed (setting [13]), with pigweed (setting [14]) and in the assay on pigweed (setting [15]) was 100 throughout. For the same molecule, the “Plant response rating (0 = no effect, 100 = complete control), Pigweed” value with pigweed (125 g ai/ha, preemergence) is reported as 100. Moreover, the “Rice plant response rating” value in the assay on rice [2] (62 g ai/ha, scale 0 to 100) is recorded as 60; with rice [2] (setting [6]), 70; with rice [2] (setting [7]), 75. Also, the “Plant response rating, Rice” value in the assay on rice [2] (setting [8]) is given as 80. The “Plant response rating, Nightshade” value was 95 with eastern black nightshade (setting [13]), 100 in the assay with eastern black nightshade (setting [14]) and 100 in the assay on eastern black nightshade (setting [15]). Also, the “Plant response rating (0 = no effect, 100 = complete control), Nightshade” value in the assay on eastern black nightshade (125 g ai/ha, preemergence) is on record as 100. Also, the “Plant response rating, Surinam Grass” value was determined as 65 in the assay with Surinam grass (setting [13]), 100 in the assay with Surinam grass (setting [14]) and 100 with Surinam grass (setting [15]). In addition, the “Plant response rating (0 = no effect, 100 = complete control), Surinam Grass” value in the assay with Surinam grass (125 g ai/ha, preemergence) amounted to 95.
